{
  "source": "patent US20090028935A1",
  "about": "“CARVEDILOL FORMS, COMPOSITIONS, AND METHODS OF PREPARATION THEREOF” (priority 2006, published 2009)",
  "origin": "cited, not measured here",
  "conditions": "background statement",
  "note": "Entries after “also recorded” stand apart in the source; their conditions may differ. Like-named read-outs stand apart in the source and are kept apart here.",
  "data": [
    {"compound": "COc1ccccc1OCCNCC(O)COc1cccc2[nH]c3ccccc3c12", "note": "(racemic) [Carvedilol, (±)-1-(carbazol-4-yloxy)-3-[[2-(o-methoxyphenoxy)ethyl]amino]-2-propanol]", "values": [
      {"measurement": "aqueous solubility", "result": "low solubility in aqueous media, especially in media of increasingly basic pH; also recorded: limited aqueous solubility, especially in basic aqueous media"},
      {"measurement": "aqueous solubility", "setting": "listed as carvedilol", "result": "pH dependent solubility with significantly lower solubility in the lower gastrointestinal tract"}
    ]}
  ]
}
